# From paper PMC9150124, “Design of a Potent, Selective, and Brain-Penetrant Inhibitor of Wnt-Deactivating Enzyme Notum by Optimization of a Crystallographic Fragment Hit” (Journal of Medicinal Chemistry, 2022)
# Key:
# Test in all cases: SelectScreen kinase profiling, SSBK ZLyte SP Technology
# Format in all cases: biochemical
# [1] = target: kinase named in conditions (Homo sapiens, UniProt O00418); details: EEF2K, 10 μM
# Procedure: (§1) Kinase selectivity screening was performed by Thermo Fisher Scientific (Paisley, U.K.) in their SelectScreen Biochemical Kinase Profiling Service. Assay information and data are presented in the Supporting Information.
# (§2) Kinase selectivity screening was performed by ThermoFisher Scientific (Paisley, U.K.) in their SelectScreenTM
# (§3) Biochemical Kinase Profiling service .
# [2] = target: kinase named in conditions (Homo sapiens, UniProt O15264); details: MAPK13 (p38 delta), 10 μM
# Procedure: as §1, §2, §3
# [3] = target: kinase named in conditions (Homo sapiens, UniProt O75116); details: ROCK2, 10 μM
# Procedure: as §1, §2, §3
# [4] = target: kinase named in conditions (Homo sapiens, UniProt O75582); details: RPS6KA5 (MSK1), 10 μM
# Procedure: as §1, §2, §3
# [5] = target: kinase named in conditions (Homo sapiens, UniProt O75676); details: RPS6KA4 (MSK2), 10 μM
# Procedure: as §1, §2, §3
# [6] = target: kinase named in conditions (Homo sapiens, UniProt O76039); details: CDKL5, 10 μM
# Procedure: as §1, §2, §3
# [7] = target: kinase named in conditions (Homo sapiens, UniProt P00519, F317I); details: ABL1 F317I, 10 μM
# Procedure: as §1, §2, §3
# [8] = target: kinase named in conditions (Homo sapiens, UniProt P00519, Y253F); details: ABL1 Y253F, 10 μM
# Procedure: as §1, §2, §3
# [9] = target: kinase named in conditions (Homo sapiens, UniProt P06241); details: FYN, 10 μM
# Procedure: as §1, §2, §3
# [10] = target: kinase named in conditions (Homo sapiens, UniProt P06493); details: CDK1/cyclin B, 10 μM
# Procedure: as §1, §2, §3
# [11] = target: kinase named in conditions (Homo sapiens, UniProt P07948); details: LYN A, 10 μM
# Procedure: as §1, §2, §3
# [12] = target: kinase named in conditions (Homo sapiens, UniProt P15056); details: BRAF, 10 μM
# Procedure: as §1, §2, §3
# [13] = target: kinase named in conditions (Homo sapiens, UniProt P15056, V600E); details: BRAF V599E, 10 μM
# Procedure: as §1, §2, §3
# [14] = target: kinase named in conditions (Homo sapiens, UniProt P23458); details: JAK1, 10 μM
# Procedure: as §1, §2, §3
# [15] = target: kinase named in conditions (Homo sapiens, UniProt P25098); details: ADRBK1 (GRK2), 10 μM
# Procedure: as §1, §2, §3
# [16] = target: kinase named in conditions (Homo sapiens, UniProt P27361); details: MAPK3 (ERK1), 10 μM
# Procedure: as §1, §2, §3
# [17] = target: kinase named in conditions (Homo sapiens, UniProt P29322); details: EPHA8, 10 μM
# Procedure: as §1, §2, §3
# [18] = target: kinase named in conditions (Homo sapiens, UniProt P36888, D835Y); details: FLT3 D835Y, 10 μM
# Procedure: as §1, §2, §3
# [19] = target: kinase named in conditions (Homo sapiens, UniProt P36896); details: ACVR1B (ALK4), 10 μM
# Procedure: as §1, §2, §3
# [20] = target: kinase named in conditions (Homo sapiens, UniProt P49760); details: CLK2, 10 μM
# Procedure: as §1, §2, §3
# [21] = target: kinase named in conditions (Homo sapiens, UniProt P52333); details: JAK3, 10 μM
# Procedure: as §1, §2, §3
# [22] = target: kinase named in conditions (Homo sapiens, UniProt Q00535)
# Procedure: as §1, §2, §3
# [23] = target: kinase named in conditions (Homo sapiens, UniProt Q00537); details: CDK17/cyclin Y, 10 μM
# Procedure: as §1, §2, §3
# [24] = target: kinase named in conditions (Homo sapiens, UniProt Q13627); details: DYRK1A, 10 μM
# Procedure: as §1, §2, §3
# [25] = target: kinase named in conditions (Homo sapiens, UniProt Q15139); details: PRKD1 (PKC mu), 10 μM
# Procedure: as §1, §2, §3
# [26] = target: kinase named in conditions (Homo sapiens, UniProt Q86Z02); details: HIPK1 (Myak), 10 μM
# Procedure: as §1, §2, §3
# [27] = target: kinase named in conditions (Homo sapiens, UniProt Q8IW41); details: MAPKAPK5 (PRAK), 10 μM
# Procedure: as §1, §2, §3
# [28] = target: kinase named in conditions (Homo sapiens, UniProt Q9H0K1); details: SNF1LK2, 10 μM
# Procedure: as §1, §2, §3
# [29] = target: kinase named in conditions (Homo sapiens, UniProt Q9NR20); details: read-out: % Inhibition mean
# Procedure: as §1, §2, §3
# [30] = target: kinase named in conditions (Homo sapiens, UniProt Q9P289); details: MST4, 10 μM
# Procedure: as §1, §2, §3
# [31] = target: kinase named in conditions (Homo sapiens, UniProt Q9UM73); details: ALK, 10 μM
# Procedure: as §1, §2, §3
# [32] = target: kinase named in conditions (Homo sapiens, UniProt Q9UQB9); details: AURKC (Aurora C), 10 μM
# Procedure: as §1, §2, §3
# [33] = target: kinase named in conditions (Homo sapiens, UniProt Q9Y243); details: AKT3 (PKB gamma), 10 μM
# Procedure: as §1, §2, §3
# [34] = test system: kinase named in conditions
# Procedure: as §1, §2, §3
# Sequence of kinase named in conditions (Homo sapiens, UniProt Q00535) (Q00535 whole entry): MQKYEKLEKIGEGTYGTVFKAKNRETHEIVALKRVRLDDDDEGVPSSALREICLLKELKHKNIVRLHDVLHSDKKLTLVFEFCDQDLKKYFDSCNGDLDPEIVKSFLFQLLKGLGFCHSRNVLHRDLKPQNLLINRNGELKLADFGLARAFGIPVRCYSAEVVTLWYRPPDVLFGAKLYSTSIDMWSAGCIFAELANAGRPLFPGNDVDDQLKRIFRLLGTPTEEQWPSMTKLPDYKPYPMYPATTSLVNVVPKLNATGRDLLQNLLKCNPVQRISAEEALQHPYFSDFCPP
# Sequence of kinase named in conditions (Homo sapiens, UniProt O15264) (O15264 whole entry): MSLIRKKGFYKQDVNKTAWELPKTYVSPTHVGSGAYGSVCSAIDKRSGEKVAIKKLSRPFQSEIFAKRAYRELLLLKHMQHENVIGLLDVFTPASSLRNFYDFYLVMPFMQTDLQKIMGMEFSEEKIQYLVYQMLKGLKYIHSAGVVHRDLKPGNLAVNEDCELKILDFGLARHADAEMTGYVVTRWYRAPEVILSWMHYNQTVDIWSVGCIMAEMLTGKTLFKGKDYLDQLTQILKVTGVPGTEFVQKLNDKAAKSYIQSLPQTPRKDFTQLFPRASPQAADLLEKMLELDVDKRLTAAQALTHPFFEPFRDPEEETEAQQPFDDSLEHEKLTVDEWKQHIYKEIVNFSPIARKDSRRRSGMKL
# Sequence of kinase named in conditions (Homo sapiens, UniProt O75116) (O75116 whole entry): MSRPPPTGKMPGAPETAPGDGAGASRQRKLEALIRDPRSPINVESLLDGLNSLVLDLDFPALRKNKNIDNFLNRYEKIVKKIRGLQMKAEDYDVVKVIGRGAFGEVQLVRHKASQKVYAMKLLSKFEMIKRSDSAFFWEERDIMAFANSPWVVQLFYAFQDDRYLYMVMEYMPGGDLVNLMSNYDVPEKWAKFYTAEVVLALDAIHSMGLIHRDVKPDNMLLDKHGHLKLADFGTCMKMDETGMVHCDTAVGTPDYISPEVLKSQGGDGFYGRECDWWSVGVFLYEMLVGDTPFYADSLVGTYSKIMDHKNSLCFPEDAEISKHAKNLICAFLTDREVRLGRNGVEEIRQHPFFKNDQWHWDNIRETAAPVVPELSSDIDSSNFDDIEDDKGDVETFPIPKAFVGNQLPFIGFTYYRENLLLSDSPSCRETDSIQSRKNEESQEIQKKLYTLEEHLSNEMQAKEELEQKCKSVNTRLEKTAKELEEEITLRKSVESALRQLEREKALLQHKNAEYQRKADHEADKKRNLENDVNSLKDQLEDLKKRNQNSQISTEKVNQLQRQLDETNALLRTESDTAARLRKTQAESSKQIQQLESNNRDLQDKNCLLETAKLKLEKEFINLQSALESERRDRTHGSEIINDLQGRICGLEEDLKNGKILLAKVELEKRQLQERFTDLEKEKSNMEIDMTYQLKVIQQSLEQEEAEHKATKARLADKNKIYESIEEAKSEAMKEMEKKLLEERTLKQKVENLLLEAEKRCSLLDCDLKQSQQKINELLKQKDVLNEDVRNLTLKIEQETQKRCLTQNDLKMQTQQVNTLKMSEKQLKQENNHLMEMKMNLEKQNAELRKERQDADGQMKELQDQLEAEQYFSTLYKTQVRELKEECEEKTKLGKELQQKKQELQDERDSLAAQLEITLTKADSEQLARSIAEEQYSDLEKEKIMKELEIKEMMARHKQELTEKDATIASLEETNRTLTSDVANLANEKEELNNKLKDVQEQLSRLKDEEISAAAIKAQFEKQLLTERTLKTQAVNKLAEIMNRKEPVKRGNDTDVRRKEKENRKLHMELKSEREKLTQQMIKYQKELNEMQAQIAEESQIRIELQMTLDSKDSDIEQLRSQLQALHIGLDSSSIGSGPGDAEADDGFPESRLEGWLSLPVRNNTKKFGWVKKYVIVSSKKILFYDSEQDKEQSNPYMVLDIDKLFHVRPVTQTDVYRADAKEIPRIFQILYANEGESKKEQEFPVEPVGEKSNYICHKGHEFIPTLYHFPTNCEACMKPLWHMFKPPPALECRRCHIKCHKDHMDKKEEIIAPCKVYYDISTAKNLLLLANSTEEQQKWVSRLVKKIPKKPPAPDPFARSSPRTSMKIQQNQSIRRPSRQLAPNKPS
# Sequence of kinase named in conditions (Homo sapiens, UniProt P23458) (P23458 whole entry): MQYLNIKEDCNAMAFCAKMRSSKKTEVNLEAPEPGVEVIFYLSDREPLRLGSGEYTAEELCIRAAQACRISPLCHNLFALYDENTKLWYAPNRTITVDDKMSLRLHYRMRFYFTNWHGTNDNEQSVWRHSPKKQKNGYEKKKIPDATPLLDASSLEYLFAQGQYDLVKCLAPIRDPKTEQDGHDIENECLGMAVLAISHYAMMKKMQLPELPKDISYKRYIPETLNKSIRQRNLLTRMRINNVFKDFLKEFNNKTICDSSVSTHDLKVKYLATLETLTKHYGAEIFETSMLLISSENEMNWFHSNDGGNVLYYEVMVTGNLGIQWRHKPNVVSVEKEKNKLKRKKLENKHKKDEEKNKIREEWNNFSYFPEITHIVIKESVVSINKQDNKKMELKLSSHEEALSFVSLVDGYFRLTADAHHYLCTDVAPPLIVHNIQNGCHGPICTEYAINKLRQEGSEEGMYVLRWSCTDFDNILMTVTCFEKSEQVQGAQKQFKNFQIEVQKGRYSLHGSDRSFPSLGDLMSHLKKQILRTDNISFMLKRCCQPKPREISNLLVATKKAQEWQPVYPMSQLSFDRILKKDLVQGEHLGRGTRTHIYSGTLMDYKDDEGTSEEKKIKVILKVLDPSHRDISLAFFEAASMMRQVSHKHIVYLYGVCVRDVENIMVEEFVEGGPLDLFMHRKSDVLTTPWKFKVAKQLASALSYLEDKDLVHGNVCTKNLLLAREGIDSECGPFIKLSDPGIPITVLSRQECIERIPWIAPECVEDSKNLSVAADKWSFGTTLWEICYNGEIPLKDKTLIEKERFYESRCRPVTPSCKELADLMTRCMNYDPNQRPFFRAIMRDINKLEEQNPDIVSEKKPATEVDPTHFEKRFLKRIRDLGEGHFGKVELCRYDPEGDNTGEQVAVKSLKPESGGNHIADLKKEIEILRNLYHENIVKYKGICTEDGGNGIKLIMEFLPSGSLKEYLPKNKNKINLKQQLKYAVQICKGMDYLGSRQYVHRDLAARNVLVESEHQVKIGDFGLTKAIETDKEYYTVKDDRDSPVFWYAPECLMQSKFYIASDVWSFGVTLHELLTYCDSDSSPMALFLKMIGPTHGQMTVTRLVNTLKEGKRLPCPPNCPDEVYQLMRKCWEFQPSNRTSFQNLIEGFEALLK
# Sequence of kinase named in conditions (Homo sapiens, UniProt P06493) (P06493 whole entry): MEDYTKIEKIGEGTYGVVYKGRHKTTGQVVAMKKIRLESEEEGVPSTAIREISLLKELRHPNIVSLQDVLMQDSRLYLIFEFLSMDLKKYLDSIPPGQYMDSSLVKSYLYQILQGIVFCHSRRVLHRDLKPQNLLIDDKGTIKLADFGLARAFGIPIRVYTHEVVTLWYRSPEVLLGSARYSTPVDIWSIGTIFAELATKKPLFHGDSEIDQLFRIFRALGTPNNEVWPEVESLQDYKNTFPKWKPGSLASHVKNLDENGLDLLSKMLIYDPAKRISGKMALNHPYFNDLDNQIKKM
# Sequence of kinase named in conditions (Homo sapiens, UniProt O00418) (O00418 whole entry): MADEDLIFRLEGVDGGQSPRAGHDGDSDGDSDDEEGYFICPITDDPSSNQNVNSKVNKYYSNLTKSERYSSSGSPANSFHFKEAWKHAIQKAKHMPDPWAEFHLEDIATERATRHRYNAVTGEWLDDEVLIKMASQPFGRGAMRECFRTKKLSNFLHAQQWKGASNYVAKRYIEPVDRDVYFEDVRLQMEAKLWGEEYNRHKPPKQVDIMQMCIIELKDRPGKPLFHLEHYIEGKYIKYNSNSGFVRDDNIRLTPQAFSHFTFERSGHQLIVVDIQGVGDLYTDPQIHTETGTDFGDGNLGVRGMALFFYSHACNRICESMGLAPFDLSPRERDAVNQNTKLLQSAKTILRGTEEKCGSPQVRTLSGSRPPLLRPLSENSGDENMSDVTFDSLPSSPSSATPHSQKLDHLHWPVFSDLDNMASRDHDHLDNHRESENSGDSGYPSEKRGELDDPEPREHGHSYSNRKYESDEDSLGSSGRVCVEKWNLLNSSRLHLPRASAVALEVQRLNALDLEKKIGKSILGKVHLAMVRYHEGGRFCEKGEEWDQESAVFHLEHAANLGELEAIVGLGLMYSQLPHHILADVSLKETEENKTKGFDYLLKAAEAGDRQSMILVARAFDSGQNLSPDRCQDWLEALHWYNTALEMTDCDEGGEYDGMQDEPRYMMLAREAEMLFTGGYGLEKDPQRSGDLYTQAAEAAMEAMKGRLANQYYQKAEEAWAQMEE
# Sequence of kinase named in conditions (Homo sapiens, UniProt P07948) (P07948 whole entry): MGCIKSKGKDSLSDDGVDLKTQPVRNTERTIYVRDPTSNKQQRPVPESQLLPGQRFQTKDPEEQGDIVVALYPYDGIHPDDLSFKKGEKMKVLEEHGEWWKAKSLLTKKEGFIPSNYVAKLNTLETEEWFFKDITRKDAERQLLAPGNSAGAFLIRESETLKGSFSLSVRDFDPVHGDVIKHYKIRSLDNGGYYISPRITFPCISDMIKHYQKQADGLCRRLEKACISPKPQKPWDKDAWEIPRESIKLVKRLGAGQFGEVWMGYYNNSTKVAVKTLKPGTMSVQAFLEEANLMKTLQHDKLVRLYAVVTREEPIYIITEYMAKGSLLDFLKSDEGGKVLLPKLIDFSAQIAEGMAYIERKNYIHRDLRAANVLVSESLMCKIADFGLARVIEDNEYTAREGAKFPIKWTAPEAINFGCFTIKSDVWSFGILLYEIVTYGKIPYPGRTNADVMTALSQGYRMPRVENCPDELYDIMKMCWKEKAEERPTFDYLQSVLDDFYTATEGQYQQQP
# Sequence of kinase named in conditions (Homo sapiens, UniProt Q9UQB9) (Q9UQB9 whole entry): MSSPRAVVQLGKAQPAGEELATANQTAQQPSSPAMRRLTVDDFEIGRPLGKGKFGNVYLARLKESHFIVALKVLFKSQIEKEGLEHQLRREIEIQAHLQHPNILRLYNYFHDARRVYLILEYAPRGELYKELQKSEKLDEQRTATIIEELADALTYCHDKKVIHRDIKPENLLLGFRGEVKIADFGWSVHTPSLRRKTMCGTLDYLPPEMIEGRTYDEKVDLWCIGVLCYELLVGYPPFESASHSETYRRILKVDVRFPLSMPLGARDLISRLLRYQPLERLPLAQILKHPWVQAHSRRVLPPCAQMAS
smiles,measurement,setting,value
"FC(F)(F)c1c(Cl)ccc(-n2ccnn2)c1Cl [8l, 1-(2,4-Dichloro-3-(trifluoromethyl)phenyl)-1H-1,2,3-triazole]",inhibition at 10 µM,[1],3%
same,inhibition at 10 µM,[2],-2%
same,inhibition at 10 µM,[3],16%
same,inhibition at 10 µM,[4],9%
same,inhibition at 10 µM,[5],1%
same,inhibition at 10 µM,[6],-5%
same,inhibition at 10 µM,[7],13%
same,inhibition at 10 µM,[8],13%
same,inhibition at 10 µM,[9],0%
same,inhibition at 10 µM,[10],4%
same,inhibition at 10 µM,[11],-1%
same,inhibition at 10 µM,[12],9%
same,inhibition at 10 µM,[13],5%
same,inhibition at 10 µM,[14],2%
same,inhibition at 10 µM,[15],4%
same,inhibition at 10 µM,[16],4%
same,inhibition at 10 µM,[17],2%
same,inhibition at 10 µM,[18],3%
same,inhibition at 10 µM,[19],-12%
same,inhibition at 10 µM,[20],18%
same,inhibition at 10 µM,[21],7%
same,inhibition at 10 µM,"[22]; CDK5/p25, 10 μM",1%
same,inhibition at 10 µM,"[22]; CDK5/p35, 10 μM",7%
same,inhibition at 10 µM,[23],1%
same,inhibition at 10 µM,[24],0%
same,inhibition at 10 µM,[25],11%
same,inhibition at 10 µM,[26],2%
same,inhibition at 10 µM,[27],6%
same,inhibition at 10 µM,[28],2%
same,inhibition at 10 µM,[29],1%
same,inhibition at 10 µM,[30],23%
same,inhibition at 10 µM,[31],5%
same,inhibition at 10 µM,[32],19%
same,inhibition at 10 µM,[33],3%
same,% Inhibition mean,"[34]; LYN B, 10 μM",7%
same,% Inhibition mean,"[34]; PRKCB2 (PKC beta II), 10 μM",-17%
same,% Inhibition mean,"[34]; SRC N1, 10 μM",4%
